Literature values in patent US20250205255A1, “PHOSPHOLIPID COMPOSITIONS FOR TREATING INFECTIONS AND INFLAMMATION” (Celestial Therapeutics, Inc., priority 2022, published 2025).

Experiments:
[1] = tested on: Toll-like receptor 4 (TLR4) interacting proteins CD14 and MD-2; settings: through direct interactions with CD14 and MD-2
[2] = tested on: Respiratory Syncytial Virus (RSV); settings: bronchial epithelial cells

Compound: CCCCCCCC/C=C\CCCCCCCC(=O)O[C@H](COC(=O)CCCCCCCCCCCCCCC)COP(=O)(O)OCC(O)CO (mixture of isomers) [POPG, 1-Palmitoy-2-loleoyl-sn-glycerol-3-phospho-(1′-rac-glycerol)]
- inflammatory responses induced by lipopolysaccharide [1]: markedly attenuate
- cytopathic effects induced by RSV [2]: significantly inhibited
- interleukin-6 production ([2]; induced by RSV): significantly inhibited
- interleukin-8 production ([2]; induced by RSV): significantly inhibited
